# Molecular target: T1, human MDM2 (GST-hMDM2 1-188), interaction with biotinylated-p53 (1-83) (Homo sapiens, UniProt Q00987)
# T1 construct: Amino acid residues 1-188 of human MDM2 were expressed; made in house; host or cells: Escherichia coli
# Experiment: improved HTRF assay (HTRF2 assay), inhibition of HDM2-p53 interaction
# Assay type: binding
# Conditions: 0.2 nM GST-hMDM2, 0.5 nM biotinylated-p53, 100 mM KF
# How it was run: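 Time-resolved fluorescence (HTRF) read after >4 h equilibration with SA-XLent/anti-GST cryptate/KF detection reagents. Reaction: compound plus GST-hMDM2 for 20 min at room temperature, then E. coli-expressed biotinylated p53 residues 1-83 for 60 min, 2% DMSO final. Inhibition expressed versus nutlin-3.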
# T1 sequence (Q00987 1-188): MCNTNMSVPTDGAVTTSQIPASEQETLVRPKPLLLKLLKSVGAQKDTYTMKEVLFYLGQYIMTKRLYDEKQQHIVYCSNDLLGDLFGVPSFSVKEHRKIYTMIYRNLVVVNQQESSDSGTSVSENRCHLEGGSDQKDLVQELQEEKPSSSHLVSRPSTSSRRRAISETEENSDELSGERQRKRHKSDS
row,SMILES,IC50 [nM]
1,"CNC(=O)C[C@H]1O[C@H](c2cccc(Cl)c2)[C@@H](c2ccc(Cl)cc2)N([C@H](CN(c2ccccc2F)S(=O)(=O)C2CC2)C2CC2)C1=O (single isomer, unassigned) [Example 365, 2-((2R,5R,6R)-6-(3-Chlorophenyl)-5-(4-chlorophenyl)-4-((S)-1-cyclopropyl-2-(N-(2-fluorophenyl)cyclopropanesulfonamido)ethyl)-3-oxomorpholin-2-yl)-N-methylacetamide or 2-((2S,5R,6R)-6-(3-chlorophenyl)-5-(4-chlorophenyl)-4-((S)-1-cyclopropyl-2-(N-(2-fluorophenyl)cyclopropanesulfonamido)ethyl)-3-oxomorpholin-2-yl)-N-methylacetamide]",2
2,"CN(C)C(=O)C[C@H]1O[C@H](c2cccc(Cl)c2)[C@@H](c2ccc(Cl)cc2)N([C@H](CN(c2ccccc2F)S(=O)(=O)C2CC2)C2CC2)C1=O (single isomer, unassigned) [Example 366, 2-((2R,5R,6R)-6-(3-Chlorophenyl)-5-(4-chlorophenyl)-4-((S)-1-cyclopropyl-2-(N-(2-fluorophenyl)cyclopropanesulfonamido)ethyl)-3-oxomorpholin-2-yl)-N,N-dimethylacetamide or 2-((2S,5R,6R)-6-(3-chlorophenyl)-5-(4-chlorophenyl)-4-((S)-1-cyclopropyl-2-(N-(2-fluorophenyl)cyclopropanesulfonamido)ethyl)-3-oxomorpholin-2-yl)-N,N-dimethylacetamide]",< 1
3,"CN(C)C(=O)C[C@H]1O[C@H](c2cccc(Cl)c2)[C@@H](c2ccc(Cl)cc2)N([C@H](CN(c2ccccc2F)S(=O)(=O)C2CC2)C2CC2)C1=O (single isomer, unassigned) [Example 367, 2-((2R,5R,6R)-6-(3-Chlorophenyl)-5-(4-chlorophenyl)-4-((S)-1-cyclopropyl-2-(N-(2-fluorophenyl)cyclopropanesulfonamido)ethyl)-3-oxomorpholin-2-yl)-N,N-dimethylacetamide or 2-((2S,5R,6R)-6-(3-chlorophenyl)-5-(4-chlorophenyl)-4-((S)-1-cyclopropyl-2-(N-(2-fluorophenyl)cyclopropanesulfonamido)ethyl)-3-oxomorpholin-2-yl)-N,N-dimethylacetamide]",4
4,"O=C(C[C@H]1O[C@H](c2cccc(Cl)c2)[C@@H](c2ccc(Cl)cc2)N([C@H](CN(c2ccccc2F)S(=O)(=O)C2CC2)C2CC2)C1=O)Nc1ccccn1 (single isomer, unassigned) [Example 368, 2-((2R,5R,6R)-6-(3-Chlorophenyl)-5-(4-chlorophenyl)-4-((S)-1-cyclopropyl-2-(N-(2-fluorophenyl)cyclopropanesulfonamido)ethyl)-3-oxomorpholin-2-yl)-N-(pyridin-2-yl)acetamide or 2-((2S,5R,6R)-6-(3-chlorophenyl)-5-(4-chlorophenyl)-4-((S)-1-cyclopropyl-2-(N-(2-fluorophenyl)cyclopropanesulfonamido)ethyl)-3-oxomorpholin-2-yl)-N-(pyridin-2-yl)acetamide]",< 1
5,"O=C(C[C@H]1O[C@H](c2cccc(Cl)c2)[C@@H](c2ccc(Cl)cc2)N([C@H](CN(c2ccccc2F)S(=O)(=O)C2CC2)C2CC2)C1=O)Nc1ccccn1 (single isomer, unassigned) [Example 369, 2-((2R,5R,6R)-6-(3-Chlorophenyl)-5-(4-chlorophenyl)-4-((S)-1-cyclopropyl-2-(N-(2-fluorophenyl)cyclopropanesulfonamido)ethyl)-3-oxomorpholin-2-yl)-N-(pyridin-2-yl)acetamide or 2-((2S,5R,6R)-6-(3-chlorophenyl)-5-(4-chlorophenyl)-4-((S)-1-cyclopropyl-2-(N-(2-fluorophenyl)cyclopropanesulfonamido)ethyl)-3-oxomorpholin-2-yl)-N-(pyridin-2-yl)acetamide]",8
6,"CC(C)(C)S(=O)(=O)C[C@H](C1CC1)N1C(=O)[C@@H](CCO)O[C@H](c2cccc(Cl)c2)[C@H]1c1ccc(Cl)cc1 (single isomer, unassigned) [Example 370, (2R,5R,6R)-4-((S)-2-(tert-Butylsulfonyl)-1-cyclopropylethyl)-6-(3-chlorophenyl)-5-(4-chlorophenyl)-2-(2-hydroxyethyl)morpholin-3-one or (2S,5R,6R)-4-((S)-2-(tert-butylsulfonyl)-1-cyclopropylethyl)-6-(3-chlorophenyl)-5-(4-chlorophenyl)-2-(2-hydroxyethyl)morpholin-3-one]",28
7,"CC[C@@H](CS(=O)(=O)C(C)(C)C)N1C(=O)[C@@H](C[C@@H](O)CO)O[C@H](c2cccc(Cl)c2)[C@H]1c1ccc(Cl)cc1 (single isomer, unassigned) [Example 371]",15
8,"CC[C@@H](CS(=O)(=O)C(C)(C)C)N1C(=O)[C@@H](C[C@@H](O)CO)O[C@H](c2cccc(Cl)c2)[C@H]1c1ccc(Cl)cc1 (single isomer, unassigned) [Example 372]",67
9,"CC[C@@H](CS(=O)(=O)C(C)(C)C)N1C(=O)[C@@H](C[C@@H](O)CO)O[C@H](c2cccc(Cl)c2)[C@H]1c1ccc(Cl)cc1 (single isomer, unassigned) [Example 373]",45
10,"CC[C@@H](CS(=O)(=O)C(C)(C)C)N1C(=O)[C@@H](C[C@@H](O)CO)O[C@H](c2cccc(Cl)c2)[C@H]1c1ccc(Cl)cc1 (single isomer, unassigned) [Example 374]",19
11,"CC[C@@H](CS(=O)(=O)C(C)(C)C)N1C(=O)[C@@H](CNC(=O)N(CC)CC)O[C@H](c2cccc(Cl)c2)[C@H]1c1ccc(Cl)cc1 (single isomer, unassigned) [Example 375, 3-(((2R,5R,6R)-4-((S)-1-(tert-Butylsulfonyl)butan-2-yl)-6-(3-chlorophenyl)-5-(4-chlorophenyl)-3-oxomorpholin-2-yl)methyl)-1,1-diethylurea or 3-(((2S,5R,6R)-4-((S)-1-(tert-butylsulfonyl)butan-2-yl)-6-(3-chlorophenyl)-5-(4-chlorophenyl)-3-oxomorpholin-2-yl)methyl)-1,1-diethylurea]",55
12,"CC[C@@H](CS(=O)(=O)C(C)(C)C)N1C(=O)[C@@H](CNC(=O)N(CC)CC)O[C@H](c2cccc(Cl)c2)[C@H]1c1ccc(Cl)cc1 (single isomer, unassigned) [Example 376, 3-(((2R,5R,6R)-4-((S)-1-(tert-Butylsulfonyl)butan-2-yl)-6-(3-chlorophenyl)-5-(4-chlorophenyl)-3-oxomorpholin-2-yl)methyl)-1,1-diethylurea or 3-(((2S,5R,6R)-4-((S)-1-(tert-butylsulfonyl)butan-2-yl)-6-(3-chlorophenyl)-5-(4-chlorophenyl)-3-oxomorpholin-2-yl)methyl)-1,1-diethylurea]",48
13,"CC[C@@H](CS(=O)(=O)C(C)(C)C)N1C(=O)[C@@H](CNC(C)=O)O[C@H](c2cccc(Cl)c2)[C@H]1c1ccc(Cl)cc1 (single isomer, unassigned) [Example 379, N-(((2R,5R,6R)-4-((S)-1-(tert-Butylsulfonyl)butan-2-yl)-6-(3-chlorophenyl)-5-(4-chlorophenyl)-3-oxomorpholin-2-yl)methyl)acetamide or N-(42S,5R,6R)-4-((S)-1-(tert-butylsulfonyl)butan-2-yl)-6-(3-chlorophenyl)-5-(4-chlorophenyl)-3-oxomorpholin-2-yl)methyl)acetamide]",82

# — patent US9376425B2, “Heterocyclic compounds as MDM2 inhibitors for the treatment of cancer” (AMGEN INC., priority 2011, dated 2016)
